This is an account of results in patent US12065512B2, “Cyclic peptide and a medicament, external preparation and cosmetic comprising said cyclic peptide” (Igisu Co., Ltd., priority 2015, dated 2024).

Entries after “also recorded” stand apart in the source; their conditions may differ. Positions of bridges follow the written chain, without caps; N, C: chain ends. No end group written: not given here.

What all share (assay type): in vivo, human
The test system of experiment [1] is subjects suffering various dermatitis. Briefly: B ring gel formulation versus gel base by two-sided application in dermatitis. The note with it: right side B ring, left side gel base; atopic dermatitis or chronic eczema. The text has this: 3.2 Comparing B Ring Gel Formulation to Gel Base by Two-Sided Application For subjects suffering various dermatitis, either B ring gel formulation or the gel base was applied to the affected site, and changes in symptoms before and after the application were observed (Table below).

The subject of experiment [2] is skin conditions of subjects. Briefly: Skin-improving (cosmetic) effect of gel formulation applied to face. The method, then: 4.1.1 Confirming Skin-Improving Effect (Comparing B Ring Gel Formulation to BNP Gel Formulation)
The B ring gel formulation or BNP gel formulation was applied to subjects. The B ring gel formulation was applied on the right cheek or eye of each subject, the BNP gel formulation on the left cheek or eye, and changes in skin conditions were observed and compared (Table below). The changes in skin conditions were determined based on physical sensory evaluation by the subject and our objective observation as physicians.
Table below summarizes examples in which B ring gel formulation was applied without applying two-sided. The changes in skin conditions were determined by similar method as described above.
4.1.2 Confirming Skin-Improving Effect (Comparing B Ring Gel Formulation to Gel Base)
In order to examine the presence or absence of the contribution by the gel base to the effects of B ring gel formulation and BNP gel formulation, three subjects were administered B ring gel formulation on their right face and the gel base on the left, and changes in skin conditions on the subject's faces were observed (Table below).

Experiment [3] has as its system normal subjects who had symptoms of roughened lips. Briefly: Mucosal condition of roughened lips upon application of B ring gel formulation. The note with it: 1 application. The method, then:
The B ring gel formulation was applied to normal subjects who had symptoms of roughened lips, and changes in mucosal condition were observed (Table below). The changes in mucosal conditions were determined based on physical sensory evaluation by the subject and our objective observation as physicians.

Experiment [4] has as its system normal subjects who had symptoms of scalp/hair. In words: Scalp/hair condition upon application of B ring gel formulation. How it is done:
4.3 Observation on scalp/hair condition upon application of B ring gel formulation. The B ring gel formulation was applied to normal subjects who had symptoms of scalp/hair, and changes in conditions of scalp and hair were observed (Table below). The changes in scalp/hair were determined based on physical sensory evaluation by the subject and our objective observation as physicians.

In experiment [5] the test system is skin condition of the subjects. In words: Skin condition upon using bath agent comprising B ring. Conditions: bath in 37 to 41° C. hot water with 0.01 μM, once a day for 14 days. How it is done: 4.4 Observation on Skin Condition Upon Using Bath Agent Comprising B Ring
Subjects were given bath in 37 to 41° C. hot water comprising B ring dissolved at 0.01 μM (100 ml of 20 μM B ring solution dissolved in 200 L hot water) once a day for 14 days, and skin condition of the subjects was compared to the case of hot water alone (Table 14). The changes in skin conditions were determined based on physical sensory evaluation by the subject and our objective observation as physicians.

The test system of experiment [6] is symptoms associated to various alopecia. Briefly: Therapeutic effect on alopecia: gel formulation applied to decalvant site. Conditions: 1 μmol, 1 application/day, continued; male alopecia, right side. The method, then: 5. Confirming Therapeutic Effect on Alopecia Either B ring gel formulation or BNP gel formulation was applied, and their effects on symptoms associated to various alopecia were observed (Table below). The changes in symptoms were determined based on physical sensory evaluation by the subject and our objective observation as physicians.

The test system of a further experiment is nasal cavity. Briefly: Cyclic peptides with amino acid replacement: nasal effect (formulations A to E = 3, 15, 30, 100, 500 μg/ml in physiological saline, 0.1 ml). Conditions: formulation C (30 μg/ml in physiological saline), once a day, 0.1 ml applied to each nasal cavity; subject with allergic rhinitis. How it is done: Next, cyclic peptides with some replaced amino acid were subjected to following examination in order to confirm their effect. The methods for preparing the above cyclic peptide and confirming amino acid sequence of the prepared peptide were same as the method for preparing the cyclic peptide as described above and Mass spectroscopy method.
9.3 Confirming Nasal Effect
The obtained cyclic peptide was prepared in physiological saline at 3, 15, 30, 100 or 500 μg/ml, and 0.1 ml each was applied to nasal cavity. Each of formulations A to E in the table indicates the concentration of the cyclic peptide at 3, 15, 30, 100 or 500 μg/ml, respectively. The absence of the effect upon the application of physiological saline without the peptide confirmed the effect was not a placebo effect.

For the substance “Cys-Phe-Gly-Arg-Lys-Met-Asp-Arg-Ile-Ser-Ser-Ser-Ser-Gly-Leu-Gly-Cys (CFGRKMDRISSSSGLGC; disulfide 1-17; ends not checked) [B ring]”, the Post-application symptoms result in experiment [1] was “Flare remitted soon after application. After; also recorded: Flare started to fade soon after application,; also recorded: Flare remitted soon after application,; also recorded: Flare and pigmentation removed 2.5 min after”; in experiment [5], “ameliorating effect on miliaria, cracked or chapped skin; also recorded: Remission of desiccatinn; also recorded: Remission of flare and milaria; also recorded: Cracks gradually became; also recorded: Gradual remission of erythema”. The “Skin-improving effect, summary” value in experiment [2] (compared to site where BNP gel formulation had been applied, FIG. 1) is “has a skin moisturizing effect and is capable of improving skin texture”. For the same substance, the “Post-application symptoms (skin condition)” value in experiment [2] (concentration not printed (about 1 μM), right face, gel base on the left) was 1 min after application, skin tingling sensation. Besides, the “Post-application symptoms (lips, mucosal condition)” value in experiment [3] (0.5 μmol) is 3 min after application, lips became moisturized; in experiment [3] (1 μmol) it was 2 min after application, cracks on mouth corner were remitted and Skin became moisturized soon after application. After 2 min,; in experiment [3] (2 μmol), “After 2 min, lips were full and soft, and wrinkles were less; also recorded: After 2 min, lips were full, soft and moisturized, and wrinkles”. In addition, the “Post-application symptoms (scalp/hair)” value in experiment [4] (1 μmol, 1 application/day (5 days, 3 weeks or continued), daily for 3 weeks) was “Hair growth was stimulated, and an increase in hair volume”; in experiment [4] (1 μmol, 1 application/day (5 days, 3 weeks or continued), daily for 5 days), “A decrease in falling hair was observed, showing an effect”; in experiment [4] (1 μmol, 1 application/day (5 days, 3 weeks or continued), daily, continued post partum), “growth was stimulated, improving thinning of hair”; in experiment [4] (2 μmol, 1 application), “After 2 min, itches were removed, scalp seborrhea and; also recorded: After 1 min. itches were removed. After 2 min, scalp; also recorded: After 2 min, itches were removed, scalp seborrhea was improved”. In addition, in experiment [5], the “Changes in subjective symptoms” value is “Remission of itch and pain; also recorded: Relief of pain; also recorded: Itches after bath was remitted”. Also, in experiment [6], the “Post-application symptoms (alopecia)” value was 7 weeks after application, hair became elastic and formulation exhibited more remarkable hair-.
Take “SEQ ID NO 34 (CFGRKMDRISSSSGVGC; disulfide 1-17)”: the Itches after application entry with nasal cavity is on record as “No irritating symptoms”.
